How the values were obtained:
[1] = target: Beta-2 adrenergic receptor (Homo sapiens, UniProt P07550); experiment: DRUGMATRIX: Adrenergic beta2 radioligand binding (ligand: [3H] CGP-12177); assay type: cell membranes, Membrane; settings: cho; Not Active = under 50% inhibition at 10 µM
[2] = target: T1, 5-hydroxytryptamine receptor 2C (Homo sapiens, UniProt P28335); experiment: DRUGMATRIX: Serotonin (5-Hydroxytryptamine) 5-HT2C radioligand binding (ligand: [3H] Mesulergine); assay type: cell membranes, CHO-K1, Membrane; settings: cho-k1; Not Active = under 50% inhibition at 10 µM
T1 sequence (P28335 whole entry): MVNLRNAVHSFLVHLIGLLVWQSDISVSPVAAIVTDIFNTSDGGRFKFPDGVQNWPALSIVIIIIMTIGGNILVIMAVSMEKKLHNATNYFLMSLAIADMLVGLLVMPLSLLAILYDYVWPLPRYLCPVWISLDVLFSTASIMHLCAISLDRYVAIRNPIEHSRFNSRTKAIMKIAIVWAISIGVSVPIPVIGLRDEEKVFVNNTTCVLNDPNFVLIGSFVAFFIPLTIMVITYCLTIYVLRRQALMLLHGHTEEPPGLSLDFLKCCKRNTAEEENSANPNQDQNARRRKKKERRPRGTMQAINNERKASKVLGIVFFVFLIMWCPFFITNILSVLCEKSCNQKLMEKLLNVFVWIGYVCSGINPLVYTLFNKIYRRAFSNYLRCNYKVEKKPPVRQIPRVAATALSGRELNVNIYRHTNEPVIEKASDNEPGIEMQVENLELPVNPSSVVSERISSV

[3] = DRUGMATRIX: GABAA, Muscimol, Central radioligand binding (ligand: [3H] Muscimol); assay type: cell membranes, Rattus norvegicus, Wistar, Brain, Membrane; settings: Not Active = under 50% inhibition at 10 µM
[4] = target: T2, 3-hydroxy-3-methylglutaryl-coenzyme A reductase (Homo sapiens, UniProt P04035); set-up: species or system Escherichia coli;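 further: enzyme inhibition assay of HMG-CoA reductase using radiolabeled [14C]HMG-CoA as substrate; in other assays of this panel Not Active means under 50% inhibition at 10 µM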
T2 sequence (P04035 whole entry): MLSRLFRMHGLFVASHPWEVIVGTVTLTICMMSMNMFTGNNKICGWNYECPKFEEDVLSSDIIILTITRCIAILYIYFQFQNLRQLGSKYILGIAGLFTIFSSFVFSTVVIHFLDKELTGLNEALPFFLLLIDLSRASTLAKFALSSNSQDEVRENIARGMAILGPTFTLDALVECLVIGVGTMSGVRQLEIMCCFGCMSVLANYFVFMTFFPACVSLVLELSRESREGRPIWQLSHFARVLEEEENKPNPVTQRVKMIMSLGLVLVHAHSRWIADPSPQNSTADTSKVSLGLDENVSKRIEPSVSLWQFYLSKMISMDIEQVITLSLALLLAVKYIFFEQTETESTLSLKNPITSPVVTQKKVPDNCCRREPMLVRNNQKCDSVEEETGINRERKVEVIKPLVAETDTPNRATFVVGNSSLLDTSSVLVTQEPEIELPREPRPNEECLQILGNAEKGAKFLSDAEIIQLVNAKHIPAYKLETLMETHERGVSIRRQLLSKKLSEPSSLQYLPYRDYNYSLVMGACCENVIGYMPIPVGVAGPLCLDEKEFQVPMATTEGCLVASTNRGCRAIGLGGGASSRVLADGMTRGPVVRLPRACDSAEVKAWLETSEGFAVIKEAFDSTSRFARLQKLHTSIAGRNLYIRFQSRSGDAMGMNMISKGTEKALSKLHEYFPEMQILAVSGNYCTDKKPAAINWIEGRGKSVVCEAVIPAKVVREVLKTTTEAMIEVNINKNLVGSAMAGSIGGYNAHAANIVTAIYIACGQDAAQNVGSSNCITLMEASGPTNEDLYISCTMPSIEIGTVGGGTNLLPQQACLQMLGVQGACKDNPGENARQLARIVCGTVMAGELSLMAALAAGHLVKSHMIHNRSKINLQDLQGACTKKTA

[5] = target: T3, Polyunsaturated fatty acid lipoxygenase ALOX15 (Oryctolagus cuniculus, UniProt P12530); experiment: biochemical; assay type: tissue-based, Reticulocytes;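 further: inhibition of 15-lipoxygenase enzyme activity measured with linoleic acid as the substrate; in other assays of this panel Not Active means under 50% inhibition at 10 µM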
T3 sequence (P12530 whole entry): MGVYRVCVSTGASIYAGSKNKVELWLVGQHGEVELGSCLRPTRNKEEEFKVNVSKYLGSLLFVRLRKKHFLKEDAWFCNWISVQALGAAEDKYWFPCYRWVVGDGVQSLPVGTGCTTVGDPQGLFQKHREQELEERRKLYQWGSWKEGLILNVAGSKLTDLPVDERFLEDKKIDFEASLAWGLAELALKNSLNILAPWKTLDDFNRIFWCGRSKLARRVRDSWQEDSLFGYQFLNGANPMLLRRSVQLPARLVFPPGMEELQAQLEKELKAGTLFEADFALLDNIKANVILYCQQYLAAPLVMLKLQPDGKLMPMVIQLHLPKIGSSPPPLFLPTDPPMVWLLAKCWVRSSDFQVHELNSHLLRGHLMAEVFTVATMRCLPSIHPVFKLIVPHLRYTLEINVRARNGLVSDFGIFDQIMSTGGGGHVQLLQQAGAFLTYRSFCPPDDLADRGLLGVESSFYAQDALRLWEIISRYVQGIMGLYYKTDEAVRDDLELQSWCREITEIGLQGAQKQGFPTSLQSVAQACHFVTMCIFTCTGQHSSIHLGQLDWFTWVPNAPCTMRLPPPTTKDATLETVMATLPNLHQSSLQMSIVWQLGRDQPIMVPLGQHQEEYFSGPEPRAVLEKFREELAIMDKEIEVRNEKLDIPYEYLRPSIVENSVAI

[6] = target: Kappa-type opioid receptor (Homo sapiens, UniProt P41145); experiment: DRUGMATRIX: Opiate kappa (OP2, KOP) radioligand binding (ligand: [3H] Diprenorphine); assay type: cell membranes, HEK293, Membrane; settings: hek293; Not Active = under 50% inhibition at 10 µM
Chain of Kappa-type opioid receptor (P41145 whole entry): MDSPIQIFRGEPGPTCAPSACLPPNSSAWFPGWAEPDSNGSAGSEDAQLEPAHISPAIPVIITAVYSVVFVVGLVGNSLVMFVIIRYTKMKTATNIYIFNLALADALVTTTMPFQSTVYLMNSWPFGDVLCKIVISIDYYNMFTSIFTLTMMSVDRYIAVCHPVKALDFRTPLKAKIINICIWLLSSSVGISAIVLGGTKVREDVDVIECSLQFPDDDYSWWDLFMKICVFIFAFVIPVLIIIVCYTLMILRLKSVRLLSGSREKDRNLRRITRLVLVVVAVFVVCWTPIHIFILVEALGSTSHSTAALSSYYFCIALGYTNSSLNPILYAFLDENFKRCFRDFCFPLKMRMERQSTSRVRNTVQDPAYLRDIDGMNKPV

Row | Compound | IC50 [1] | IC50 [2] | IC50 [3] | Ki [3] | IC50 [4] | IC50 ([5]; reticulocytes) | IC50 [6] | IC50 ([5]; read-out: IC50) | Ki [1] | Ki [2] | Ki [4] | Ki ([5]; reticulocytes)
1 | CC(C)CN(C[C@@H](O)[C@H](Cc1ccccc1)NC(=O)O[C@H]1CCOC1)S(=O)(=O)c1ccc(N)cc1 | Not Active | Not Active | Not Active | Not Active | Not Active | Not Active | Not Active | – | – | – | – | –
2 | c1ccc(Nc2ccc(Nc3ccccc3)cc2)cc1 | Not Active | Not Active | Not Active | Not Active | Not Active | – | Not Active | 2.88 µM | – | – | – | –
3 | COc1cc2c3cc1Oc1cc(ccc1O)C[C@@H]1c4c(cc(OC)c(O)c4Oc4ccc(cc4)C[C@@H]3N(C)CC2)CC[N+]1(C)C.[Cl-] | Not Active | Not Active | Not Active | Not Active | Not Active | Not Active | Not Active | – | – | – | – | –
4 | NC(=O)N1c2ccccc2CCc2ccccc21 | Not Active | Not Active | Not Active | Not Active | Not Active | Not Active | Not Active | – | – | – | – | –
5 | O=C1CC[C@@H](N2C(=O)c3ccccc3C2=O)C(=O)N1 | Not Active | Not Active | Not Active | Not Active | Not Active | Not Active | Not Active | – | – | – | – | –
6 | Cc1onc(O)c1CC(N)C(=O)O (racemic) [(R,S)-AMPA] | Not Active | Not Active | Not Active | Not Active | Not Active | Not Active | Not Active | – | – | – | – | –
7 | Cc1ccc2cc3c(ccc4ccccc43)c3c2c1CC3 [3-METHYLCHOLANTHRENE] | Not Active | Not Active | Not Active | Not Active | Not Active | Not Active | – | – | – | – | – | –
8 | CC[C@@]1(O)C[C@H](O[C@H]2C[C@H](N(C)C)[C@H](O[C@H]3C[C@H](O)[C@H](O[C@H]4CCC(=O)[C@H](C)O4)[C@H](C)O3)[C@H](C)O2)c2c(cc3c(c2O)C(=O)c2c(O)cccc2C3=O)[C@H]1C(=O)OC [ACLARUBICIN] | Not Active | Not Active | Not Active | Not Active | Not Active | Not Active | Not Active | – | – | – | – | –
9 | Nc1nc2c(ncn2COCCO)c(=O)[nH]1 [ACYCLOVIR] | Not Active | Not Active | Not Active | Not Active | Not Active | Not Active | Not Active | – | – | – | – | –
10 | Cc1c(C)c2c(c(C)c1O)CC[C@@](C)(CCC[C@H](C)CCC[C@H](C)CCCC(C)C)O2 [ALPHA-TOCOPHEROL] | Not Active | Not Active | Not Active | Not Active | Not Active | Not Active | Not Active | – | – | – | – | –
11 | CN(C)c1nc(N(C)C)nc(N(C)C)n1 [ALTRETAMINE] | Not Active | Not Active | Not Active | Not Active | Not Active | Not Active | Not Active | – | – | – | – | –
12 | Nc1c(Br)cc(Br)cc1CN[C@H]1CC[C@H](O)CC1 [AMBROXOL] | Not Active | Not Active | Not Active | Not Active | Not Active | Not Active | Not Active | – | – | – | – | –
13 | Cc1ccc(/N=C/N(C)/C=N/c2ccc(C)cc2C)c(C)c1 [AMITRAZ] | Not Active | Not Active | Not Active | Not Active | Not Active | Not Active | – | – | – | – | – | –
14 | COc1ccc(C[C@H]2NC[C@H](O)[C@H]2OC(C)=O)cc1 [ANISOMYCIN] | Not Active | Not Active | Not Active | Not Active | Not Active | Not Active | – | – | Not Active | Not Active | Not Active | Not Active
15 | O=C(O)CCCc1ccc(N(CCCl)CCCl)cc1 [CHLORAMBUCIL] | Not Active | Not Active | Not Active | Not Active | Not Active | Not Active | – | – | – | – | – | –
16 | CN(C)CCCN1c2ccccc2Sc2ccc(Cl)cc21 [CHLORPROMAZINE] | Not Active | – | Not Active | Not Active | Not Active | – | – | 16 µM | – | – | – | –
17 | CC1=C2C(=CO[C@H](C)[C@H]2C)C(O)=C(C(=O)O)C1=O [CITRININ] | Not Active | Not Active | Not Active | Not Active | Not Active | Not Active | – | – | – | – | – | –
18 | CC(C)(C)NCC(O)c1cc(Cl)c(N)c(Cl)c1 (stereo not given) [CLENBUTEROL] | – | Not Active | Not Active | Not Active | Not Active | Not Active | – | – | – | – | – | –
19 | CNCCCN1c2ccccc2CCc2ccccc21 [DESIPRAMINE] | – | Not Active | Not Active | Not Active | Not Active | Not Active | Not Active | – | – | – | – | –
20 | COc1cc2nc(N3CCN(C(=O)C4COc5ccccc5O4)CC3)nc(N)c2cc1OC (stereo not given) [DOXAZOSIN] | – | – | Not Active | Not Active | Not Active | Not Active | Not Active | – | – | – | – | –
21 | COCCc1ccc(OCC(O)CNC(C)C)cc1 (stereo not given) [METOPROLOL] | – | Not Active | Not Active | Not Active | Not Active | Not Active | Not Active | – | – | – | – | –
22 | CCCN1C[C@H](CSC)C[C@@H]2c3cccc4[nH]cc(c34)C[C@H]21 [PERGOLIDE] | Not Active | – | Not Active | Not Active | Not Active | Not Active | Not Active | – | – | – | – | –
23 | Cc1ccc(N(CC2=NCCN2)c2cccc(O)c2)cc1 [PHENTOLAMINE] | Not Active | – | Not Active | Not Active | Not Active | Not Active | Not Active | – | – | – | – | –
24 | CADMIUM ACETATE | Not Active | Not Active | Not Active | Not Active | Not Active | Not Active | – | – | Not Active | Not Active | Not Active | Not Active
25 | LEAD (II) ACETATE | Not Active | Not Active | Not Active | Not Active | Not Active | Not Active | – | – | Not Active | Not Active | Not Active | Not Active
26 | LIPOPOLYSACCHARIDE E. COLI O55:B5 | Not Active | Not Active | Not Active | Not Active | Not Active | Not Active | – | – | Not Active | Not Active | Not Active | Not Active

From ChEMBL document CHEMBL1909046, “DrugMatrix in vitro pharmacology data”
